From patent publication US7528252B2, “Derivatives of triazoly-imidazopyridine useful as ligands of the adenosine A2a receptor and their use as medicaments” (Sigma-Tau Industrie Farmaceutiche Riunite S.p.A., priority 2002, dated 2009)
Read-outs that look alike come from different tables or passages of the source.

Experiments:
human A2b receptor = biological target: T1, human A2b receptor (Homo sapiens, UniProt P29275); assay: Affinity towards the adenosine A2b receptor ([3H]-DPCPX binding, HEK 293 membranes); conditions: read-out: A2b Ki (nM) ± sd
T1 construct: expressed in transfected cells; host or cells: HEK 293
T1 sequence (P29275 1-332): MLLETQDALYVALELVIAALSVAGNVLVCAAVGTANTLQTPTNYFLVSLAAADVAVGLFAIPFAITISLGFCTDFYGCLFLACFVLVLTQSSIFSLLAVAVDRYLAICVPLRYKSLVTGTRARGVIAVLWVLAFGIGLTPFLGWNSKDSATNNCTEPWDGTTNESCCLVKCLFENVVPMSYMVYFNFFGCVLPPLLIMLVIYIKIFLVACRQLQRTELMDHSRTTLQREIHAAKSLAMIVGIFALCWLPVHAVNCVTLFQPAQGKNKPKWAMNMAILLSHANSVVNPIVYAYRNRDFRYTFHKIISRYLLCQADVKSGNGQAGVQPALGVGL
Protocol: The interactive capacity of each product towards the adenosine A2b receptor was evaluated using membranes from HEK 293 cells stably expressing the human A2b receptor subtype exclusively.
Non-specific binding was measured in the presence of NECA (50 μM).
In binding studies for each compound, eight different concentrations (from 10^−5 M to 10^−12 M) were evaluated in order to obtain competition curves. By means of non-linear regression analysis of the competition curves, the IC50 values, which express the binding affinity of each product, were determined. Using the Cheng Prusoff equation (Ki=IC50/1+(L/Kd)) Ki values were calculated through which the affinity of each product studied, for the receptor investigated, is expressed.

[1] = biological target: T2, human A3 subtype adenosine receptor (Homo sapiens, UniProt P0DMS8); assay: Affinity towards the adenosine A3 receptor ([125I]AB-MECA binding, HEK-293 membranes); conditions: test compounds; read-out: A3 (h) Ki
T2 construct: expressed in transfected cells; host or cells: HEK-293
T2 sequence (P0DMS8 whole entry): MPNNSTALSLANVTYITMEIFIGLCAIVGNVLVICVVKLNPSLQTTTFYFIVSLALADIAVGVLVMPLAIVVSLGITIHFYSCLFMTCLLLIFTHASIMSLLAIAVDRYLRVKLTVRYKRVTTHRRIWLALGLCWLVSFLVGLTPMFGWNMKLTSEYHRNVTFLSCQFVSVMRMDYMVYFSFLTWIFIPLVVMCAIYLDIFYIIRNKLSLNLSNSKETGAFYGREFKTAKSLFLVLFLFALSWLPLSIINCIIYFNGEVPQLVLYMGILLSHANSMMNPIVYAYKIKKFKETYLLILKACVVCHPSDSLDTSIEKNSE

D3 = D3 (Homo sapiens, UniProt P35462); assay: Receptor binding study, D3; conditions: mean values, n = 2, read-out: percent inhibition of control specific binding
Sequence of D3 (P35462 whole entry): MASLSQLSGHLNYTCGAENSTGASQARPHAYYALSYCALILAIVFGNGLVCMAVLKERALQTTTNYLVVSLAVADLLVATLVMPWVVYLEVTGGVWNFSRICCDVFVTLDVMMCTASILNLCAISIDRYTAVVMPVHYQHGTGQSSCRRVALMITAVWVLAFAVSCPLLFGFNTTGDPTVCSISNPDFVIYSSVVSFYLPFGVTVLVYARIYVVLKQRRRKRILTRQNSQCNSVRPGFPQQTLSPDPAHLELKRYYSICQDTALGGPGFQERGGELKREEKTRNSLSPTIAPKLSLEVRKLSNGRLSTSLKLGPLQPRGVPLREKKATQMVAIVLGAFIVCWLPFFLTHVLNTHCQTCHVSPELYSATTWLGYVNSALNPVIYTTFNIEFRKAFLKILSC

NMDA = assay: Receptor binding study, NMDA; conditions: 1 μM; mean values, n = 2
5-HT1A = 5-HT1A (Homo sapiens, UniProt P08908); assay: Receptor binding study, 5-HT1A; conditions: mean values, n = 2, read-out: percent inhibition of control specific binding
Sequence of 5-HT1A (P08908 whole entry, species assumed): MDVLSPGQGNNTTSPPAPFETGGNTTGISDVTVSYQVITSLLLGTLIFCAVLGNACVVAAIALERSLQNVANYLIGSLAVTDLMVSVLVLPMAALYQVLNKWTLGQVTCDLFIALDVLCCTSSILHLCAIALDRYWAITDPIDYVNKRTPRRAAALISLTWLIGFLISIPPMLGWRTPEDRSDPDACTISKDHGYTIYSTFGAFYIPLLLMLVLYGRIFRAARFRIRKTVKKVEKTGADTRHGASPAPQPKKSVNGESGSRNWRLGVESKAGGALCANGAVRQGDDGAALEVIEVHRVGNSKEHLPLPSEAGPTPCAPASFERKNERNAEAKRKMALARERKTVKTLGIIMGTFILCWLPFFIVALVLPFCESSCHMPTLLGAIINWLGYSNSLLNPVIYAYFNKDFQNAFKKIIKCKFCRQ

α1(non-selective) = assay: Receptor binding study, α1; conditions: 1 μM; mean values, n = 2
P2Y = assay: Receptor binding study, P2Y; conditions: 1 μM; mean values, n = 2
5-HT5A (h) = 5-HT5A (h) (Homo sapiens, UniProt P47898); assay: Receptor binding study, 5-HT5A; conditions: mean values, n = 2, read-out: percent inhibition of control specific binding
Sequence of 5-HT5A (h) (P47898 whole entry): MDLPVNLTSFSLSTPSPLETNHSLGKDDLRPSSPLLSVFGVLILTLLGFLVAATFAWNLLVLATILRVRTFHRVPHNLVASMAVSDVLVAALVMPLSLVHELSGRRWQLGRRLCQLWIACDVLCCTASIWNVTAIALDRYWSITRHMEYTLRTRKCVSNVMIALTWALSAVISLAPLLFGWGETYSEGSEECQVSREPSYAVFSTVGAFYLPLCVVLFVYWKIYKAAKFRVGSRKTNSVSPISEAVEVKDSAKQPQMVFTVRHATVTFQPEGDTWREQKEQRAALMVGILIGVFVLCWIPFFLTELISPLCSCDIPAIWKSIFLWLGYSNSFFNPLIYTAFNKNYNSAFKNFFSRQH

β2 = β2 (Homo sapiens, UniProt P07550); assay: Receptor binding study, β2; conditions: mean values, n = 2, read-out: percent inhibition of control specific binding
Sequence of β2 (P07550 whole entry): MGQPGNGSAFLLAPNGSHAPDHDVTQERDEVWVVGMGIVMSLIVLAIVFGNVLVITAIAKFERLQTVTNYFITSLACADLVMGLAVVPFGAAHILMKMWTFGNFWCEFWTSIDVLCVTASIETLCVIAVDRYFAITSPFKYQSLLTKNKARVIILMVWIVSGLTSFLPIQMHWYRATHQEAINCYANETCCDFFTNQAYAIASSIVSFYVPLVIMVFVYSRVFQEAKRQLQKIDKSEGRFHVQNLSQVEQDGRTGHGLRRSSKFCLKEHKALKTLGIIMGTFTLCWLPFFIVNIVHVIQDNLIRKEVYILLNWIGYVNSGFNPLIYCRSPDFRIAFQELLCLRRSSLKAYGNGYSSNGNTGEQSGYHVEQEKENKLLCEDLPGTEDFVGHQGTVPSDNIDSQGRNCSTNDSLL

mice [2] = assay: Forced swim test in mice; assay type: in vivo; conditions: 60 minutes before the test; 4 minutes of testing period
Protocol: Mice were dropped individually into glass cylinders (height: 25 cm, internal diameter 10 cm) containing 10 cm water, maintained at 23° C. The immobility time (sec) was measured during 4 minutes of test. A mouse was judged to be immobile when it remained floating in the water, making only the necessary movements to keep its head above water. Test compound ST 1535 was administered orally to mice, 60 minutes before the test.

CD1 male mice = assay: Capacity of the products to induce catalepsy in mice; assay type: in vivo; conditions: endoperitoneal, 30 minutes prior to the test
Protocol: (§1) 10 CD1 male mice were used per group. For this test, a steel bar, 10 cm long, was placed at a height of 4.5 cm above the support surface. Onto this, were placed the front legs of the animals. The presence of catalepsy was determined by measuring the time (in seconds) the animal remained in the posture placed. Later, this parameter was placed relatively, on a scale of rising values (0 to 5) through which, the degree of catalepsy determined in both control animals and in these subjected to treatment with the substances under test could be proportionately expressed.
The reference products and these in this study were administered endoperitoneally, in a volume of 10 ml/kg, 30 minutes prior to the test.
Except for CGS 21680 (reference compound) which was dissolved in 0.9% NaCl, the products in the study and the control antagonist ZM 241385 were solubilised in DMSO and then diluted in Cremofor EL and 0.9% NaCl (final concentrations: DMSO 15%, Cremofor EL 15%, NaCl 0.9%).

M1 = M1 (Homo sapiens, UniProt P11229); assay: Receptor binding study, M1; conditions: mean values, n = 2, read-out: percent inhibition of control specific binding
Sequence of M1 (P11229 whole entry): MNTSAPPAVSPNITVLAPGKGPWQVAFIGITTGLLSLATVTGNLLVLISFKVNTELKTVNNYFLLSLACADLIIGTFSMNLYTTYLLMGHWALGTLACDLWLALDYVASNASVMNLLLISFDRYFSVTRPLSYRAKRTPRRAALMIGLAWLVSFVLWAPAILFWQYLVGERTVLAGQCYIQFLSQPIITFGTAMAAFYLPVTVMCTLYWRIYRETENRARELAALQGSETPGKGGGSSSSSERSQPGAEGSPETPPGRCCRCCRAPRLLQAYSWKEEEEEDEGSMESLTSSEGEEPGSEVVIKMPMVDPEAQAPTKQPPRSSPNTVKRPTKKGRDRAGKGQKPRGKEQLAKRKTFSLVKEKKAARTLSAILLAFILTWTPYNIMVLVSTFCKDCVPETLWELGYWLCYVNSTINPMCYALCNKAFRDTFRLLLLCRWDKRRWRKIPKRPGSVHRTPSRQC

M2 = M2 (Homo sapiens, UniProt P08172); assay: Receptor binding study, M2; conditions: mean values, n = 2, read-out: percent inhibition of control specific binding
5-HT transporter = 5-HT transporter (Homo sapiens, UniProt P31645); assay: Receptor binding study, 5-HT transporter; conditions: read-out: percent inhibition of control specific binding
Sequence of 5-HT transporter (P31645 whole entry, species assumed): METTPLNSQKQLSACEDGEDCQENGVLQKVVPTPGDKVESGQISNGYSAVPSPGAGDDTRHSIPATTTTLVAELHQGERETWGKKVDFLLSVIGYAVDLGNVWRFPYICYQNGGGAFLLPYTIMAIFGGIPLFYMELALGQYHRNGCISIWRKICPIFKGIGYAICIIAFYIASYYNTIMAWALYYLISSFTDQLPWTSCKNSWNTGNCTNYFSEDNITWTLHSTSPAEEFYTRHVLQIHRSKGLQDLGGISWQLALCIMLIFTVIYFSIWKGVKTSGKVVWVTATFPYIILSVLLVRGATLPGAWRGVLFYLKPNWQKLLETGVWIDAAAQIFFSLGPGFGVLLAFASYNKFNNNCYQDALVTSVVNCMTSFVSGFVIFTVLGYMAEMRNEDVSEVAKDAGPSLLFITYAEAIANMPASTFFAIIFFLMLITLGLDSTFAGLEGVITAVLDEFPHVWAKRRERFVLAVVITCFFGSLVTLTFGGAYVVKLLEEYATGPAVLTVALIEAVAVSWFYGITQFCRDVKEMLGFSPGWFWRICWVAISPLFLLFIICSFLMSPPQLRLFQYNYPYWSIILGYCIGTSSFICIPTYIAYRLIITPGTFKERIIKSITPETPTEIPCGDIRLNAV

[3] = biological target: T3, human A1 subtype adenosine receptor (Homo sapiens, UniProt P30542); assay: Affinity towards the adenosine A1 receptor ([3H]-DPCPX binding, CHO-K1 membranes); conditions: read-out: A1 Ki (nM) ± sd
T3 construct: expressed in transfected cells; host or cells: CHO-K1
T3 sequence (P30542 1-326): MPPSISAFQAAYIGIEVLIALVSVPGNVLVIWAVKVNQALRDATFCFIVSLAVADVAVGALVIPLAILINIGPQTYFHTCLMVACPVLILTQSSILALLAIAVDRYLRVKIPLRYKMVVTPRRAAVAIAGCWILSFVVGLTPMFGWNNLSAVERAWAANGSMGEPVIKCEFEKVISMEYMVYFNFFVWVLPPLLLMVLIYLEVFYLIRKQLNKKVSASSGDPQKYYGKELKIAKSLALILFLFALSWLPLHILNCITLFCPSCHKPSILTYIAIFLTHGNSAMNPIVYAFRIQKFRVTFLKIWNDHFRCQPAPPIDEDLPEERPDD

α2(non-selective) = assay: Receptor binding study, α2; conditions: 1 μM; mean values, n = 2
GABAb = GABAb (Homo sapiens, UniProt Q9UBS5); assay: Receptor binding study, GABAb; conditions: mean values, n = 2, read-out: percent inhibition of control specific binding
Sequence of GABAb (Q9UBS5 15-961 limits assumed): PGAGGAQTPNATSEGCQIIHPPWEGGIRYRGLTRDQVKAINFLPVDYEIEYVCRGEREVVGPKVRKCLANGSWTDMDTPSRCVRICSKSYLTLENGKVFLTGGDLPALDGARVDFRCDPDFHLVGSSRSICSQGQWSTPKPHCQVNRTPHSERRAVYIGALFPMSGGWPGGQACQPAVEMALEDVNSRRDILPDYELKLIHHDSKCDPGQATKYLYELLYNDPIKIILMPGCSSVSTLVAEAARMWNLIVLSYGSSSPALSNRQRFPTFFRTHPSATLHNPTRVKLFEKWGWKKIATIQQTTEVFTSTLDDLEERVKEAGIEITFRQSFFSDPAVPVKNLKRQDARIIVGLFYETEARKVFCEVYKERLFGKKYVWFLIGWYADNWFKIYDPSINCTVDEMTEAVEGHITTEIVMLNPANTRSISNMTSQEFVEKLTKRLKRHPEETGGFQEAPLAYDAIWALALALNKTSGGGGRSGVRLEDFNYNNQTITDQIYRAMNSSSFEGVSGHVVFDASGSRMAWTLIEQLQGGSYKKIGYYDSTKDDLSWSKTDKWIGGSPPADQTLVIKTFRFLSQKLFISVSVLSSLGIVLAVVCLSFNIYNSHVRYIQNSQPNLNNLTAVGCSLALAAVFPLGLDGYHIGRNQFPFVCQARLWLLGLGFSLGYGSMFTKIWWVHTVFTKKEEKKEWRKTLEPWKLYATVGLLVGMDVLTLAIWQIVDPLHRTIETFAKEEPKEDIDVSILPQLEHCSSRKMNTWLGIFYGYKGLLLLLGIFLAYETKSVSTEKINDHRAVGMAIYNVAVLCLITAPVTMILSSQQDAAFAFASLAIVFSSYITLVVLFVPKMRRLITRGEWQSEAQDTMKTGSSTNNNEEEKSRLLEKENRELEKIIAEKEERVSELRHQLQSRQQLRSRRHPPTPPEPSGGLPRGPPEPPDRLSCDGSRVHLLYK
Sequence of GABAb (O75899 42-941 partner): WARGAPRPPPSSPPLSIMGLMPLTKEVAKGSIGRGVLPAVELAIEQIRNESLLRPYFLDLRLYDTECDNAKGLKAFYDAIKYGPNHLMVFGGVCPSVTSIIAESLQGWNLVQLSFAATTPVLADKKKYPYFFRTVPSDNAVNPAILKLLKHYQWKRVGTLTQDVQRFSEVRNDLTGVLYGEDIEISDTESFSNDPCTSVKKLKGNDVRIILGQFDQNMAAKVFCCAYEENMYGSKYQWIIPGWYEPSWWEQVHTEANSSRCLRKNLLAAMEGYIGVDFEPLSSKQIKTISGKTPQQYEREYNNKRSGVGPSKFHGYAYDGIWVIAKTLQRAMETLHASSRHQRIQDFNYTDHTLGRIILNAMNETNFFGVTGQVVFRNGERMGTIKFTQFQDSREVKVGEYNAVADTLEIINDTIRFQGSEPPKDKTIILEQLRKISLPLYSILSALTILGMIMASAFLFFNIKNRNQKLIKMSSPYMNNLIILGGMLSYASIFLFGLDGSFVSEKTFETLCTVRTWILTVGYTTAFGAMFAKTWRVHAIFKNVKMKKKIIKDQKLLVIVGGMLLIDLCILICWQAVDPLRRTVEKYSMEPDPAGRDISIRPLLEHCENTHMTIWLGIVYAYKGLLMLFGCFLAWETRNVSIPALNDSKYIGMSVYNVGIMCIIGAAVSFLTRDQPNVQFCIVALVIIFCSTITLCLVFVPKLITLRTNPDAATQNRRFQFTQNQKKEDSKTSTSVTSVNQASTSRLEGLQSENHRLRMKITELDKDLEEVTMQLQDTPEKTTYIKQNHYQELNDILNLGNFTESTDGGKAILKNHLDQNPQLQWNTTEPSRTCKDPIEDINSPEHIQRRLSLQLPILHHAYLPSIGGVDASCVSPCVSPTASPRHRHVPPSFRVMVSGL

mice [4] = assay: Capacity to antagonise Haloperidol-induced catalepsy; assay type: in vivo; conditions: orally 10 mg/kg and 20 mg/kg; Haloperidol 4 mg/Kg endoperitoneal
Protocol: as §1
For this study, product ST 1535 was used. Catalepsy was induced in the animals through the endoperitoneal administration of Haloperidol at a dose of 4 mg/Kg, two hours prior measuring catalepsy in the animals, the presence of which was determined according to the method described previously.
After scoring for catalepsy by Haloperidol, the animals were treated orally, with a dose equal to 10 mg/kg and 20 mg/kg of the product ST 1535. Then 60 minutes after treatment, the animals were subjected to further catalepsy scoring, which was carried out at the following times after ST 1535 administration: 120′, 240′, 300′.

SMILES: CCCCc1nc(N)c2nc(-n3nccn3)n(C)c2n1 [ST 1535, 2-butyl-9-methyl-8-(2H-1,2,3-triazol-2-yl)-9H-purine-6-ylamine]
- Ki (human A2b receptor): 627 ± 45 nM
- Ki [1]: 1580 nM
- inhibition at 1 µM (D3): < 10%
- percent inhibition of control specific binding (NMDA): — (The symbol — indicates an inhibition of less than 10%.)
- inhibition at 1 µM (5-HT1A): < 10%
- percent inhibition of control specific binding (α1(non-selective)): — (The symbol — indicates an inhibition of less than 10%.)
- percent inhibition of control specific binding (P2Y): — (The symbol — indicates an inhibition of less than 10%.)
- inhibition at 1 µM (5-HT5A (h)): < 10%
- inhibition at 1 µM (β2): < 10%
- time of immobility, forced swim test (FIG. 5) (mice [2]): reduces, in a dose-dependant manner, the time of immobility of the animal
- appearance of catalepsy in mice (FIG. 1) (CD1 male mice): none of them brought about the appearance of catalepsy in mice
- inhibition at 1 µM (M1): < 10%
- inhibition at 1 µM (M2): < 10%
- inhibition at 1 µM (5-HT transporter; 1 μM, mean values, n = 2, class symbol): < 10%
- Ki [3]: 107 ± 40 nM
- percent inhibition of control specific binding (α2(non-selective)): — (The symbol — indicates an inhibition of less than 10%.)
- inhibition at 1 µM (GABAb): < 10%
- effect on Haloperidol induced catalepsy (FIG. 3) (mice [4]): reduces the appearance of catalepsy in mice

SMILES: CCCCCc1nc(N)c2nc(-n3nccn3)n(C)c2n1 [ST 2097, 9-methyl-2-pentyl-8-(2H-1,2,3-triazol-2-yl)-9H-purine-6-ylamine]
- Ki (human A2b receptor): 153 ± 13 nM
- Ki [1]: 519 nM
- inhibition at 1 µM (D3): < 10%
- percent inhibition of control specific binding (NMDA): — (The symbol — indicates an inhibition of less than 10%.)
- inhibition at 1 µM (5-HT1A): < 10%
- percent inhibition of control specific binding (α1(non-selective)): — (The symbol — indicates an inhibition of less than 10%.)
- percent inhibition of control specific binding (P2Y): — (The symbol — indicates an inhibition of less than 10%.)
- inhibition at 1 µM (5-HT5A (h)): < 10%
- inhibition at 1 µM (β2): < 10%
- inhibition at 1 µM (M1): < 10%
- inhibition at 1 µM (M2): < 10%
- inhibition at 1 µM (5-HT transporter): 13%
- Ki [3]: 26.2 ± 6.55 nM
- percent inhibition of control specific binding (α2(non-selective)): — (The symbol — indicates an inhibition of less than 10%.)
- inhibition at 1 µM (GABAb): < 10%
